Source: patent US5939385A, “Transglutaminase cross-linkable polypeptides and methods relating thereto” (ZymoGenetics, Inc., priority 1995, dated 1999)
No end group written: not given here.

Target: T1, recombinant Factor XIII (rFXIIIa) (Homo sapiens, UniProt P00488)
T1 construct: made in house
T1 sequence (P00488 39-732 limits assumed): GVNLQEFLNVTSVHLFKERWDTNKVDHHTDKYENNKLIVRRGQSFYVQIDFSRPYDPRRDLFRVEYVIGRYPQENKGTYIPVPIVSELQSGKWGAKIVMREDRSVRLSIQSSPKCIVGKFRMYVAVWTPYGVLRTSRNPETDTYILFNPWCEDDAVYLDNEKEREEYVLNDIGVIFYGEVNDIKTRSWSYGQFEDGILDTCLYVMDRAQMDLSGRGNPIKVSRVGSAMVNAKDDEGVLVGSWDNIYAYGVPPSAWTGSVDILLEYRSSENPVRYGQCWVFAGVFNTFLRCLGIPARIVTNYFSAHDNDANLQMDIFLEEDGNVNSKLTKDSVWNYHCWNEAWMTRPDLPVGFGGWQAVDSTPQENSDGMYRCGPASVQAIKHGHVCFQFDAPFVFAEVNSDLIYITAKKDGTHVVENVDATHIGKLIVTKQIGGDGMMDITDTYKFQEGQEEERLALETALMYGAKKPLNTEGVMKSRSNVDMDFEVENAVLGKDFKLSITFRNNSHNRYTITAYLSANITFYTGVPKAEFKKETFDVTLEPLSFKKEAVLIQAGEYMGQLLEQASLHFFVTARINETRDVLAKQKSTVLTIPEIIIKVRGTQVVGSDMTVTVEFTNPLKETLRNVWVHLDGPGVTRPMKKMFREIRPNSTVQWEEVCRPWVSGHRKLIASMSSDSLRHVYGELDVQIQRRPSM
Assay: Factor XIII cross-linking assay of test polypeptide substrates (HPLC area % vs time)
Type: biochemical
Experimental: Polypeptides are screened for the ability to form transglutaminase-catalyzed cross-links using a cross-linking assay as described in more detail below. […] Each reaction receives 50 mM CaCl2 to a final concentration of 2.5 mM. A negative control for each test substrate is also prepared in which the reaction lacks a transglutaminase (e.g., Factor XIII). A positive control of the fibrinogen polypeptide (The-Ile-Gly-Glu-Gly-Gln-Gln-His-His-Leu-[…]-Gln-Ala-Gly-Asp-Val) is used for each set of reactions. The reactions are initiated by the addition of 40 μg/ml of transglutaminase (e.g., recombinant Factor XIII) followed by 0.1 unit of bovine thrombin (Enzyme Research Laboratories, Inc., South Bend, Ind.) to each solution, except the negative controls. The reactions are incubated in a 37° C. water bath. A time course of 10 μl samples are taken from each reaction at 0 minutes, 30 minutes, 60 minutes, 120 minutes and overnight. The reactions are stopped by boiling for one minute. After the reactions are terminated, each sample is diluted to 50 μl with 40 μl of TBS buffer (120 mM NaCl, 50 mM Tris (pH 7.6)) and the samples are prepared for HPLC analysis.
Each sample is chromatographed on a C-18 reverse phase HPLC column (Vydac, Hesperia, Calif. or the like) using a gradient of 0-40% B in 30 minutes (Solvent A: 0.05% trifluoroacetic acid (TFA) in water and Solvent B: 0.045% TFA in 80% acetonitrile, 20% water) on a Hewlett Packard 1090 Series II HPLC or the like. The signal is detected at a wavelength of 215 nm. The area % of each reaction product is collected and plotted versus time to determine the rates of polypeptide utilization dimer formation and multimer formation. A deamidation ratio is determined by dividing the deamidation rate by the dimerization rate.
The ability of the test polypeptides to form Factor XIII-induced multimers, and the susceptibility of the polypeptides to deamidation were assessed using the method described in detail below.
Approximately 0.5 mg of lyophilized polypeptide was dissolved in 50 mM Tris, 125 mM NaCl (pH 7.6) to give a final concentration of 2 mM by weight. […] Each test polypeptide solution received 50 mM CaCl2 to a final concentration of 2.5 mM. For each reaction, a negative control lacking Factor XIII was included. A positive control of the fibrinogen polypeptide Thr-Ile-Gly-Glu-Gly-Gln-Gln-His-His-Leu-Gly-Gly-Ala-Lys-Gln-Ala-Gly-Asp-Val was used for each set of reactions. The reactions were initiated by the addition of 40 μg/ml of recombinant Factor XIII followed by 0.1 unit of bovine thrombin (Enzyme Research Laboratories, Inc.) to each solution, except the negative controls. The reactions were incubated in a 37° C. water bath. Samples of 10 μl were taken from each reaction at 0 minutes, 30 minutes, 60 minutes, 120 minutes and overnight. The reactions were stopped by boiling for one minutes. The samples were diluted to 50 μl TBS buffer (120 mM NaCl, 50 mM Tris (pH 7.6)), and the samples were prepared for HPLC analysis.
Each reaction was chromatographed on a C-18 reverse phase HPLC column (Vydac, Hesperia, Calif., or the like) using a gradient of 0-40% B in 30 minutes (solvent A: 0.05% TFA in water and Solvent B: 0.045% TFA in 80% acetonitrile/20% water) on a Hewlett Packard 1090 Series II HPLC. The signal was detected at a wavelength of 215 nm. The area % of each reaction product was collected and plotted versus time to determine the rates of polypeptide utilization and dimer formation. A deamidation ratio was determined by dividing the deamidation rate by the dimerization rate. […] The abbreviations used in Table 1 are as follows: d[S]/dt indicates the rate of substrate utilization, d[S2 ]/dt indicates the rate of dimer formation and (-NH2 /S2) indicates the relative rates of deamidation to dimerization. The initial rates were normalized to that of the fibrinogen polypeptide Thr-Ile-Gly-Glu-Gly-Gln-Gln-His-His-Leu-Gly-Gly-Ala-Lys-Gln-Ala-Gly-Asp-Val. […]

[1] = initial rate, 2mM substrate, 40 ug/ml rFXIIIa (preactivated), 2.0 U/ml Thrombin, 2.5 mM CaCl2, pH 7.4

Monomer Consumption d[S]/dt (rate of substrate utilization) (initial rate, 2mM substrate, 40 ug/ml rFXIIIa (preactivated), 2.0 U/ml Thrombin, 2.5 mM CaCl2, 125 mM NaCl, 50 mM TrisHCl, pH 7.4): -20.8 uM (monomer)/min
Crosslinking d(2[S-])/dt (rate of monomer incorporation into dimers) [1]: 15.8 uM (monomer)/min
Hydrolysis d[-NH3]/dt (hydrolysis = deamidation) [1]: 1.8 uM (monomer)/min
Hydrolysis % (share of hydrolysis (deamidation) relative to hydrolysis plus crosslinking, same reaction conditions): 10%
Sequence: VPGVGQHHLGGAKVPGVG [VPGVGQ-- HHLGGAKVPGVG]
